Numbers after ± are expanded uncertainties.
Conditions: Liquid; for mass density: 100 kPa, Buoyancy - hydrostatic balance with magnetic suspension - one sinker

CCCCCCCCCn1cc[n+](C)c1.F[B-](F)(F)F [1-nonyl-3-methylimidazolium tetrafluoroborate]
Conditions	mass density [kg/m3]
269.37 K	1108.1 ± 0.39
274.7 K	1104.14 ± 0.39
278.49 K	1101.14 ± 0.39
283.7 K	1097.76 ± 0.39
288.38 K	1094.04 ± 0.39
293.34 K	1090.55 ± 0.39
298.3 K	1087.19 ± 0.39
303.16 K	1084.03 ± 0.39
308.11 K	1080.68 ± 0.39
313.07 K	1077.08 ± 0.39
317.8 K	1073.8 ± 0.39
322.89 K	1070.47 ± 0.38
328.78 K	1067.01 ± 0.38
333.51 K	1063.61 ± 0.38
338.65 K	1060.05 ± 0.38
342.35 K	1057.5 ± 0.38
348.22 K	1053.82 ± 0.38
352.72 K	1050.55 ± 0.38
357.94 K	1047.5 ± 0.38
363.54 K	1043.86 ± 0.38

surface tension liquid-gas [mN/m]
Conditions	Ring tensiometer	Willhelmy plate method
269.49 K	33.05 ± 0.53	–
274.62 K	32.75 ± 0.53	–
278.42 K	32.6 ± 0.53	–
283.61 K	–	32.09 ± 0.07
283.73 K	32.33 ± 0.53	–
288.37 K	–	31.88 ± 0.07
288.41 K	32.14 ± 0.52	–
293.36 K	31.82 ± 0.52	31.67 ± 0.07
298.28 K	31.59 ± 0.52	–
298.31 K	–	31.45 ± 0.07
303.11 K	31.38 ± 0.52	–
303.12 K	–	31.29 ± 0.07
308.07 K	31.2 ± 0.52	–
308.11 K	–	31.1 ± 0.07
313.04 K	30.9 ± 0.51	–
313.06 K	–	30.81 ± 0.07
317.79 K	30.65 ± 0.51	–
317.83 K	–	30.66 ± 0.07
322.85 K	30.43 ± 0.51	–
322.9 K	–	30.39 ± 0.07
328.72 K	30.17 ± 0.51	–
328.74 K	–	30.12 ± 0.07
333.58 K	29.92 ± 0.51	29.92 ± 0.07
338.63 K	29.71 ± 0.5	–
338.67 K	–	29.67 ± 0.07
342.37 K	29.49 ± 0.5	–
342.48 K	–	29.52 ± 0.07
348.12 K	–	29.3 ± 0.07
348.21 K	29.22 ± 0.5	–
352.1 K	29.02 ± 0.5	–
353.08 K	–	29.07 ± 0.07
357.88 K	28.83 ± 0.5	–
357.99 K	–	28.86 ± 0.07
363.56 K	28.58 ± 0.49	–
363.61 K	–	28.61 ± 0.07

CCCCCCCCCCCC[n+]1ccn(C)c1.F[B-](F)(F)F [1-dodecyl-3-methylimidazolium tetrafluoroborate]
surface tension liquid-gas [mN/m]
Conditions	Ring tensiometer	Willhelmy plate method
327.2 K	25.89 ± 0.4	–
333.17 K	–	25.79 ± 0.11
333.2 K	25.61 ± 0.4	–
338 K	–	25.54 ± 0.11
338.06 K	25.59 ± 0.4	–
342.73 K	–	25.4 ± 0.11
343.23 K	25.4 ± 0.39	–
347.11 K	25.22 ± 0.39	25.26 ± 0.11
353.61 K	–	25.03 ± 0.11
353.66 K	25.11 ± 0.39	–
359.02 K	–	24.82 ± 0.11
359.84 K	24.78 ± 0.39	–
363.47 K	–	24.64 ± 0.11
363.69 K	24.63 ± 0.39	–

Conditions	mass density [kg/m3]
328.83 K	1027.93 ± 0.38
333.45 K	1024.75 ± 0.38
337 K	1022.41 ± 0.38
343.4 K	1018.2 ± 0.38
347.32 K	1015.89 ± 0.38
352.58 K	1012.18 ± 0.38
357.71 K	1009 ± 0.38
362.85 K	1005.22 ± 0.38

CCCCCCCn1cc[n+](C)c1.F[B-](F)(F)F [1-heptyl-3-methylimidazolium tetrafluoroborate]
surface tension liquid-gas [mN/m]
Conditions	Ring tensiometer	Willlhelmy plate method
263.76 K	37.38 ± 0.63	–
268.69 K	37.21 ± 0.63	–
273.9 K	36.87 ± 0.62	–
278.51 K	36.66 ± 0.62	–
283.18 K	–	36.23 ± 0.11
283.21 K	36.42 ± 0.62	–
288.47 K	–	35.98 ± 0.11
288.49 K	36.15 ± 0.62	–
293.29 K	36.03 ± 0.62	35.74 ± 0.11
298.21 K	35.76 ± 0.62	35.54 ± 0.11
303.1 K	35.54 ± 0.61	–
303.11 K	–	35.31 ± 0.11
308.19 K	–	35.1 ± 0.11
308.2 K	35.18 ± 0.61	–
313.21 K	34.9 ± 0.61	–
313.24 K	–	34.82 ± 0.11
317.78 K	34.74 ± 0.61	–
317.81 K	–	34.6 ± 0.11
323 K	34.45 ± 0.6	–
323.06 K	–	34.33 ± 0.1
327.79 K	34.24 ± 0.6	–
327.8 K	–	34.13 ± 0.1
333.01 K	33.87 ± 0.6	–
333.09 K	–	33.82 ± 0.1
338.61 K	–	33.62 ± 0.1
338.64 K	33.54 ± 0.6	–
342.42 K	33.44 ± 0.6	–
342.5 K	–	33.39 ± 0.1
348.76 K	–	33.17 ± 0.1
348.79 K	33.17 ± 0.59	–
353.93 K	32.8 ± 0.59	–
353.99 K	–	32.86 ± 0.1
357.12 K	–	32.66 ± 0.1
357.16 K	32.47 ± 0.59	–
364.34 K	31.97 ± 0.59	–
364.4 K	–	32.34 ± 0.1

Conditions	mass density [kg/m3]
263.87 K	1147.27 ± 0.59
268.63 K	1143.58 ± 0.59
273.63 K	1139.44 ± 0.59
278.6 K	1136.36 ± 0.59
283.19 K	1133.24 ± 0.59
288.51 K	1129.35 ± 0.59
293.3 K	1126.02 ± 0.59
298.21 K	1122.73 ± 0.59
303.11 K	1119.42 ± 0.59
308.22 K	1115.86 ± 0.59
313.23 K	1112.13 ± 0.59
317.78 K	1108.94 ± 0.59
322.97 K	1105.52 ± 0.59
327.81 K	1102.47 ± 0.59
333.04 K	1098.48 ± 0.59
338.46 K	1095.77 ± 0.59
342.6 K	1092.48 ± 0.59
348.77 K	1089.11 ± 0.59
353.97 K	1085.93 ± 0.59
357.24 K	1082.94 ± 0.59
364.28 K	1078.73 ± 0.59

Reference: the NIST ThermoML archive (doi:10.1016/j.jct.2016.04.008)
